# Several values for one entry are separate records, joined by “and”; a condition that tells them apart may be missing. Equal entries are not always repeated.
# Columns and labels:
# [1] = target: T1, Recombinant human Hsp90 alpha protein (Homo sapiens, UniProt P07900); test: Transcreener ADP FP Hsp90 ATPase assay; assay type: biochemical; details: Recombinant human HSP90, 100 μM ATP; read-out: ATPase assay on rh-Hsp90 IC50
# T1 construct: human full‐length protein, expressed in Escherichia coli; His tag (C); purchased Abcam ab80369; host or cells: Escherichia coli
# Procedure: Transcreener ADP (cat. no. 3004‐1K) and ADP2 (cat. no. 3010‐1K) FP assay kits were obtained from Bellbrook Laboratories. Recombinant human Hsp90 alpha protein (active), human full‐length protein, expressed in Escherichia coli with > 90% purity and C‐terminus His tag, was purchased from Abcam (ab80369). All FP assays were carried out in black, 384‐well, low‐volume, polystyrene nonbinding microplates from Corning Life Sciences. All basic buffer components were obtained from Sigma‐Aldrich Chemical Co. 17‐AAG (Figure 1) was obtained from Abcam. Using the Transcreener ADP FP kit, the conditions for the recombinant human Hsp90 ATPase reaction were 50 mM HEPES (pH 7.4), 20 mM KCl, 2 mM EGTA, 4 mM MgCl2, and 0.01% Brij‐35 in a 10‐μL total assay volume. The final assay concentration of ATP was 100 μM for Hsp90. Due to the relatively low level of ATPase activity compared with other enzymes, the plate was incubated at 37°C and run over 1, 2 and 3 h time points. The reaction was stopped, and the ADP was detected by adding 10 μL of 50 mM HEPES (pH 7.4), 400 mM NaCl, 20 mM EDTA, 0.01% Brij35, 75 μg/mL anti‐ADP monoclonal antibody, and 4 nM ADP far red tracer. The plate was sealed, centrifuged at 600 g for 1 min, and left at room temperature for 1 h. FP readings for the Hsp90 ATPase Transcreener assays were performed on a Clariostar plate reader ([…]). A blank mP signal composed of protein, antibody, labelled ADP, but no ATP substrate gave similar mP values to those seen in the no‐protein controls. The upper limit of the assay window was defined by a no‐protein control, and the mP in the presence of heat shock protein was subtracted from this control to generate a change in polarisation (ΔmP), which was plotted on the activity graphs. Therefore, the data take into account the spontaneous hydrolysis of ATP. Each value is the mean of triplicate determinations with standard deviations (SD) shown. IC50 values were calculated using GraphPad Prism software with the nonlinear regression curve fitted to the log (inhibitor concentration) against the raw mP values on the linear portion of the standard curve.
# [2] = Human microsomal stability (Cyprotex); assay type: in vitro ADME; details: human microsomes; for microsomal CLint: read-out: Metabolic stability (human microsomes) CLint; for half-life: read-out: Metabolic stability (human microsomes) Half-life
# Procedure: (§1) All the selected analogues were calculated to be compliant with the Lipinski rule‐of‐five guidelines for oral bioavailability. Furthermore, in vitro ADME (absorption, distribution, metabolism, excretion) properties were assessed as an outsourced service (Cyprotex Discovery Ltd., UK; part of the EvoTec Group); profiling membrane permeability (Caco‐2 cell model), hERG channel cardiotoxicity, human microsomal stability and turbidometric solubility (Table 4).
# MCF-7 cells = test: Colony forming assay, MCF-7; assay type: cell-based, human; details: for IC50: Homo sapiens, MCF7, 168 h, 7 days; for % Clonogenicity (MCF-7, 10 μM): percentage of survival colonies, 7-day incubation, standardised to DMSO control
# Procedure: (§2) Human Embryonic Kidney cells (HEK‐293) and human breast cancer cells (MCF‐7, MDA‐MB‐231 and HCC1954) were cultured in complete growth media: […] 1X (Gibco); 10% v/v Fetal Bovine Serum (FBS, Sigma Dorset UK) and L‐glutamine (2 mM, Invitrogen). SW‐480‐WT cells were maintained in selective media made up of Dulbecco's Modified Eagle Medium (Gibco), enriched with […] of Geneticin Selective Antibiotic (G418 Sulfate; Gibco, Thermo Fisher). Cells were incubated at a 5% CO2 atmosphere at 37°C.
# Cells were seeded in a 12‐well plate at 400 cells per well. One hour after the seeding of the cells, compounds (1 mM, 100 μM, 10 μM, 1 μM, 100 nM, 10 nM) or vehicle were added into the wells in triplicate (DMSO vehicle 0.1% and 1%). After 7 days, colonies were stained with 350 μL of crystal violet solution, incubated for 30 min at room temperature, then wells were washed in water and dried. At least the best 3 independent experiments out of 5 independent repeats were used to perform the statistical analysis of the results. Colonies were counted by GelCount Colony Counter (Oxford Optronix Ltd.) using the GelCount 1.1.8.0 software. Assay end points were normalised to 0% (DMSO only) and fitted to a semi‐log plot using at least n = 3 technical replicates (n = 6 for DMSO control and N = 3 independent replicates). The curve fit was performed using GraphPad Prism.
# (§3) In view of previous reports on Hsp90 inhibitors and their effects on cancer cell viability (Eachkoti et al. [2014]) and clonogenicity (Kinzel et al. [2016]), new compounds were tested for inhibition of cell viability within both non‐tumourigenic (HEK‐293) and breast cancer cell lines (MDA‐MB‐231) at a fixed concentration of 10 μM. The well‐established CellTiter‐Blue endpoint assay was used to assess cell viability. New compounds were also assessed in a colony forming assay (MCF‐7 breast cancer cell line), used as an efficacy screening to provide an indication of the inhibition of clonogenicity for these small molecules (Table 1).
# [3] = CellTiter-Blue cell viability assay, HEK-293 (24 h); assay type: cell-based, human; details: human, HEK-293 cells, CellTiter-Blue, 24 h incubation, 10 μM test compound, standardised to DMSO control
# Procedure: as §2
# (§4) Cells were cultured in 96‐well plates in 90 μL at a seeding density of 1 × 10^6 cells per well. Compound samples were prepared at different concentrations (1 mM, 100 μM, 10 μM, 1 μM, 100 nM, 10 nM) and 10 μL of each concentration was seeded in each well. Two different negative controls were used: DMSO 0.01% and 0.001%. Paclitaxel (30% w/v) was used as a positive control. Cells were treated for 24 h after which 20 μL of CellTitre‐Blue reagent (Promega, Southampton, UK) was added and incubated for 2 h at 37°C in 5% CO2. Fluorescence was measured at 560/590 nm on a Fluorostar Optima plate reader (BMG Labtech, Bucks, UK). Assay end points were normalised to 0% (DMSO only) and fitted to a semilog plot using at least n = 3 technical replicates (n = 6 for DMSO control and paclitaxel control) and N = 3 independent replicates. The curve fit was performed using the GraphPad Prism software and the standard Hill equation.
# as §3
# HEK-293 cells = test: as above; assay type: cell-based, human; details: for GI50: Homo sapiens, HEK293, 24 h incubation time
# Procedure: as §2, §4, §3
# [4] = Caco-2 membrane permeability (Cyprotex); assay type: in vitro ADME; details: human, Caco-2
# Procedure: as §1
# Caco-2 cell model = test: Caco-2 membrane permeability (Cyprotex); assay type: in vitro ADME
# Procedure: as §1
IC50 [1] [µM],microsomal CLint [2] [µL/min/mg],half-life [2] [min],IC50 (MCF-7 cells) [µM],efflux ratio [4],Caco-2 permeability Efflux ratio (Caco-2 cell model),Structure (SMILES),"% Clonogenicity (MCF-7, 10 μM) (MCF-7 cells)","viability at 24 h, 10 µM [3] [%]",GI50 (HEK-293 cells) [µM],"% Viability (HEK-293, 10 μM) (HEK-293 cells; CellTiter-Blue, 24 h incubation, 10 μM test compound, standardised to DMSO control, 10 µM) [%]"
3.25,34.6,40.1,0.29,> 2,2.26,"COc1ccc(C2NC(=O)NC(C)=C2C(=O)OCc2ccc3c(c2)OCO3)c(F)c1 (stereo not shown) [Compound 5d, Benzo[d][1,3]dioxol‐5‐ylmethyl‐4‐(2‐Fluoro‐4‐Methoxyphenyl)‐6‐Methyl‐2‐Oxo‐1,2,3,4‐Tetrahydropyrimidine‐5‐Carboxylate]",49.75% and 49.75 ± 4.35%,99.9 ± 4.53,92.4,
6.4,108,12.8,0.91,> 2,2.74,"COc1ccc(COC(=O)C2=C(C)NC(=O)NC2c2ccc(Cl)cc2)cc1C (stereo not shown) [Compound 5e, 4‐Methoxy‐3‐Methylbenzyl‐4‐(4‐Chlorophenyl)‐6‐Methyl‐2‐Oxo‐1,2,3,4‐Tetrahydropyrimidine‐5‐Carboxylate]",59.96 ± 1.95%,82,86.3,82.07 ± 1.28

# — paper PMC12704579, “New Anticancer 4‐Aryldihydropyrimidinone‐5‐Carboxylates Targeting Hsp90” (Chemical Biology & Drug Design, 2025)
